This note sets out measurements from ChEMBL document CHEMBL1141684, “Synthesis and evaluation of cis-3,4-disubstituted piperidines as potent CC chemokine receptor 2 (CCR2) antagonists” (Bioorg Med Chem Lett, 2008).

Molecules are shown by their SMILES.

Test [1] concerns the target T1, C-C chemokine receptor type 2 (Homo sapiens, UniProt P41597). The test can be described thus: Displacement of radiolabeled MCP1 from CCR2 in human PBMC by millipore filter plate assay.
Target sequence in this assay (P41597 whole entry): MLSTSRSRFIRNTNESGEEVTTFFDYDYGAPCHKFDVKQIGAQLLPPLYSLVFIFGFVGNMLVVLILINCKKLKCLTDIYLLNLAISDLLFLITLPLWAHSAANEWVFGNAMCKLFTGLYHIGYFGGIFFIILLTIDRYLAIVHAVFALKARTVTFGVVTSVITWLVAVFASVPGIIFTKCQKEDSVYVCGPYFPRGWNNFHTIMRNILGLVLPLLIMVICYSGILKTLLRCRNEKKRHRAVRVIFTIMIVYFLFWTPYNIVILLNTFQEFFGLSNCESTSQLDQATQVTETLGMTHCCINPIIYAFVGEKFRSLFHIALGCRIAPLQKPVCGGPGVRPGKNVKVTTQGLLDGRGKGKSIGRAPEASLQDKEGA
Test [2] concerns the target T1, C-C chemokine receptor type 2. Briefly: Antagonist activity at CCR2 in human PBMC assessed as MCP1-induced calcium flux by fluorescence-imaging plate assay. The format is functional.
Target sequence in this assay (P41597 whole entry): as above
In test [3] the target is T2, C-C chemokine receptor type 3 (Homo sapiens) (UniProt P51677).
T2 sequence (whole entry): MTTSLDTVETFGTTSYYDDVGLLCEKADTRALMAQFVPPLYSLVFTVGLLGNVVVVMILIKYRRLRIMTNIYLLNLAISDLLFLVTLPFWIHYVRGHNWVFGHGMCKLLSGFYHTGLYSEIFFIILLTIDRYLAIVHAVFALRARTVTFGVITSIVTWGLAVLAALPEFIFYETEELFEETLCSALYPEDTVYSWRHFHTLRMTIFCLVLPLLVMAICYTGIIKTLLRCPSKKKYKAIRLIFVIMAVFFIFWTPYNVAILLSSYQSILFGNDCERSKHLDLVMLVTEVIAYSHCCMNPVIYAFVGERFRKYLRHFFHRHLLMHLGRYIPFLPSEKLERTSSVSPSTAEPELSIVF
Briefly: Inhibition of CCR3 at 10 uM.

Test [4] deals with T1, C-C chemokine receptor type 2. The test can be described thus: Binding affinity to wild type CCR2.
Target sequence in this assay (P41597 whole entry): as the sequence (P41597 whole entry) above
Test [5] has as its target C-C chemokine receptor type 2 (Homo sapiens, UniProt P41597, E291A). The test can be described thus: Binding affinity to CCR2 E291A mutant.
The target of test [6] is T1, C-C chemokine receptor type 2. Briefly: Displacement of radiolabeled MCP1 from CCR2 in human PBMC at 1 uM by millipore filter plate assay.
Target sequence in this assay (P41597 whole entry, looked up): as the sequence (P41597 whole entry) above

C-C chemokine receptor type 2 (Homo sapiens, UniProt P41597, E291A), sequence (P41597 whole entry E291A): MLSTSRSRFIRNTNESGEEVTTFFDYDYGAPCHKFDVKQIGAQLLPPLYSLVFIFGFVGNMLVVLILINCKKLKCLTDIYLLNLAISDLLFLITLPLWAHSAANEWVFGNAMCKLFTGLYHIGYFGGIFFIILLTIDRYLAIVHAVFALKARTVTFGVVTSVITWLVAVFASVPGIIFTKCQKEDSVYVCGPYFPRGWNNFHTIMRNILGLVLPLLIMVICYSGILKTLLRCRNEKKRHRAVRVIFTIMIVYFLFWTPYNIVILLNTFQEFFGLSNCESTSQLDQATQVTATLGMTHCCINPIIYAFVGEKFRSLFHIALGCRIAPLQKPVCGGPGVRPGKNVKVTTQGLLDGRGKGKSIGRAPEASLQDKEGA

Consider `CCSc1ccc(CNC2CCNCC2NC(=O)CNC(=O)c2cc(C(F)(F)F)ccc2N)cc1` (racemic), for which the IC50 – broadly, the concentration that gives 50% inhibition – in test [1] amounted to 123 nM.
Consider `CCCN1CCC(NCc2ccc(SC)cc2)C(NC(=O)CNC(=O)c2cc(C(F)(F)F)ccc2NC(=O)N2CCCC2)C1` (racemic), for which the IC50 in test [2] came to 21 nM; in test [1] it was 8.7 nM. Besides, in test [3], the inhibition (commonly the drop in the measured response relative to a control, in per cent) turned out to be 38.2%.
On to `CSc1ccc(C(=O)NC2CCNCC2NC(=O)CNC(=O)c2cc(C(F)(F)F)ccc2N)cc1` (racemic), for which the IC50 in test [2] came to 75 nM; in test [4] it was 12 nM; in test [1], 28 nM; in test [5], 381 nM. For the same compound, the inhibition in test [3] came out at 19.7%.
In the case of `CSc1ccc(CNC2CCNCC2NC(=O)CNC(=O)c2cc(C(F)(F)F)ccc2N)cc1` (racemic), the half-maximal inhibitory concentration (IC50) was found to be 7 nM in test [2], 6.1 nM in test [4], 6.3 nM in test [1] and 749 nM in test [5]. The compound also showed an inhibition in test [3] of 47.3%.
As for `CCCN1CCC(NC(=O)c2ccc(SC)cc2)C(NC(=O)CNC(=O)c2cc(N)cc(C(F)(F)F)c2)C1` (racemic), the concentration for half-maximal inhibition (IC50) in test [2] came to 6 nM; in test [1], 6.2 nM.
Take `CCCCN1CCC(NCc2ccc(SC)cc2)C(NC(=O)CNC(=O)c2cc(C(F)(F)F)ccc2N)C1` (racemic): the 50% inhibitory concentration (IC50) is 13 nM in test [2] and 7.9 nM in test [1]. In test [3], this compound returned an inhibition of 75%.
Consider `CSc1ccc(C(=O)NC2CCN(C(=O)OC(C)(C)C)CC2NC(=O)CNC(=O)c2cc(C(F)(F)F)ccc2NC(=O)OC(C)(C)C)cc1` (racemic), for which the Activity in test [6] turned out to be 0%.
Consider `Nc1ccc(C(F)(F)F)cc1C(=O)NCC(=O)NC1CNCCC1NCc1ccc(Cl)cc1` (racemic), for which the IC50 amounted to 19 nM in test [2] and 21.5 nM in test [1]. The compound further showed an inhibition in test [3] of 90%.
As for `CSc1ccc(C(=O)NC2CCN(C)CC2NC(=O)CNC(=O)c2cc(C(F)(F)F)ccc2N)cc1` (racemic), the IC50 in test [2] amounted to 2 nM; in test [1], 1.8 nM. The compound also came in with an inhibition in test [3] of 43.1%.
For the compound `CCCN1CCC(NCc2ccc(SC)cc2)C(NC(=O)CNC(=O)c2cc(N)cc(C(F)(F)F)c2)C1` (racemic), the IC50 in test [2] was 3 nM; in test [1] it was 6.1 nM. This compound also came in with an inhibition in test [3] of 49.3%.
In test [6], `CSc1ccc(CNC2CCN(C(=O)OC(C)(C)C)CC2NC(=O)CNC(=O)c2cccc(C(F)(F)F)c2)cc1` (racemic) showed an Activity of 0%.
For the compound `CSc1ccc(CNC2CCNCC2NC(=O)CNC(=O)c2cccc(C(F)(F)F)c2)cc1` (racemic), the IC50 is 510 nM in test [2] and 97 nM in test [1]. In test [3], the inhibition came to 46%.
In turn, `CSc1ccc(CNC2CCN(C(C)=O)CC2NC(=O)CNC(=O)c2cccc(C(F)(F)F)c2)cc1` (racemic) had an IC50 in test [1] of 463 nM.
Take `CSc1ccc(CNC2CCCCC2NC(=O)CNC(=O)c2cc(C(F)(F)F)ccc2N)cc1` (racemic): the half-maximal inhibitory concentration (IC50) in test [1] was 1180 nM.
With `CCCCN1CCC(NC(=O)c2ccc(SC)cc2)C(NC(=O)CNC(=O)c2cc(C(F)(F)F)ccc2N)C1` (racemic), the 50% inhibitory concentration (IC50) came out at 13 nM in test [2] and 4.3 nM in test [1]. The same compound registered an inhibition in test [3] of 77%.
For `CSc1ccc(CNC2CCN(C)CC2NC(=O)CNC(=O)c2cc(C(F)(F)F)ccc2N)cc1` (racemic) the same measures were 5 nM, 0.95 nM and 56%.
On the same counts, the results for `CCCN1CCC(NCc2ccc(SC)cc2)C(NC(=O)CNC(=O)c2cc(C(F)(F)F)ccc2N)C1` (racemic) are 2 nM, 3.4 nM and 47%.
On the same counts, the results for `CCCN1CCC(NCc2ccc(SC)cc2)C(NC(=O)CNC(=O)c2cc(C(F)(F)F)ccc2NC(=O)NC)C1` (racemic) are 3 nM, 3.8 nM and 5.5%.
